# According to patent US4068001A, “Method of medical treatment of pancreatic insufficiency” (priority 1976, dated 1978):
# Tests used:
# [1] = Solubility of Coenzyme Q10 (properties); type: physicochemical
# Excerpt: Coenzymes Q used in the present invention, for example, Coenzyme Q10 (the compound in which n = 10 in the above formula), can be mainly obtained synthetically, although it is possible to extract Coenzyme Q from animal organs. The physical and chemical properties of Coenzyme Q10 produced synthetically are as follows.
# [2] = test system: rats of Wistar strain; assay: Acute toxicity test in rats (single high dose); type: in vivo, rat (Wistar strain)
# Excerpt: (§1) In order to evaluate the acute toxicity of a single high dose administration of Coenzyme Q10, male and female rats of Wistar strain and male and female mice of ICR-JCL strain were used, and oral, intramuscular, subcutaneous, and intravenous administrations were studied. For the oral administration of Coenzyme Q10, a gum Arabic suspension was used. For the intramuscular, subcutaneous and intravenous administrations, Coenzyme Q10 was used as a solution containing a nonionic surfactant, Nikkol HCO-60 . Nikkol HCO-60 is a trade mark of a non-ionic surfacent comprised of hydrogenated castor oil/polyoxyethylene-60 mole ether available from Nikko Chemicals, Co. Ltd., Japan.
# (§2) Observation was carried out for 7 days by using six males and six females for each dose group.
# [3] = test system: mice of ICR-JCL strain; assay: Acute toxicity test in mice (single high dose); type: in vivo, mouse (ICR-JCL strain)
# Excerpt: as §1, §2
# [4] = test system: rats of Wistar strain; assay: Subacute oral toxicity test in rats (5 weeks); type: in vivo, rat (Wistar strain)
# Procedure: (§3) Coenzyme Q10 was compulsorily and orally administered every day for 5 weeks to each group consisting of 10 male rats and 10 female rats of Wistar strain. The dose was 40, 200, and 1000 mg/Kg/day, respectively. Coenzyme Q10 was used in the form of gum Arabic suspension, while the solution containing gum Arabic alone was used as the control group. Collection of blood and urine samples and autopsies were carried out 5 weeks after the initiation of administration.
# [5] = test system: rabbits; assay: Subacute oral toxicity test in rabbits (23 days); type: in vivo, rabbit
# Procedure: Coenzyme Q10 was compulsorily and orally administered every day for 23 days to each group consisting of six male rabbits and five female rabbits. The dose was 6, 60 and 600 mg/Kg/day, respectively. Coenzyme Q10 was used in the form of gum Arabic suspension, whereas the solution containing gum Arabic alone was used as the control group, On the 24th day, blood samples were collected from all the animals, and three males and two females from each group were then selectively autopsied.
# [6] = test system: rats of Wistar strain; assay: Chronic oral toxicity test in rats (26 weeks); type: in vivo, rat (Wistar strain)
# Procedure: Coenzyme Q10 was compulsorily and orally administered to each group consisting of 10 male rats and 10 female rats of Wistar strain for consecutive 26 weeks in a ratio of 6 days a week. The dose was 6, 60 and 600 mg/Kg/day, respectively. Coenzyme Q10 was used in the form of gum Arabic suspension, whereas the solution containing gum Arabic alone is used as the control group. Collection of blood and urine samples and autopsies were carried out 26 weeks after the administration.
# [7] = test system: rats; assay: Teratogenesis test in rats; type: in vivo, rat; conditions: rats, 6, 60, 600 mg/Kg/day
# [8] = test system: mice; assay: Teratogenesis test in mice; type: in vivo, mouse; conditions: mice, 6, 60, 600 mg/Kg/day
# [9] = Overall conclusion of acute, subacute, chronic toxicity and teratogenesis tests; type: in vivo; conditions: conclusion from all toxicity tests
# Excerpt: as §1, §2, §3
# Coenzyme Q10 was compulsorily and orally administered every day for 23 days to each group consisting of six male rabbits and five female rabbits. […]
# [10] = test system: pancreas external secretion; assay: Quantity of pancreatic juice secreted after pancreozymin in anesthetized rats; type: in vivo, rat (male Wistar)
# Procedure: (§4) Male Wistar rats weighing 300-400 g were fasted for 14-20 hours and then anesthetized with 1 g/Kg of urethane. A stainless steel tube was inserted into the common bile duct at the opening to the duodenum and fixed thereto (pancreatic cannula) to take out pancreatic juice. The common bile duct was ligated at an upper portion and a polyethylene tube was inserted into the bile duct and fixed thereto to allow the bile to flow outward. The pylorus was ligated. The medicament was administered into a femoral vein through the polyethylene tube.
# (§5) The quantity of the pancreatic juice was measured by using a calibrated silicone rubber tube fitted to the pancreatic duct cannula. The tube was changed every 10 minutes.
# (§6) Coenzyme Q10 was solubilized in water with Nikkol HCO-60 before use. An aqueous solution of Nikkol HCO-60 was used as placebo.
# (§7) Coenzyme Q10 (3 mg/100 g body weight) and the placebo were administered to the rats through the femoral vein. After 60 minutes, pancreozymin (0.2 Crick, Harper and Raper unit/100 g body weight) was administered through the femoral vein.
# (§8) FIGS. 1 and 2 show the quantities of pancreatic juice secreted when placebo was administered and when Coenzyme Q10 was administered, respectively. In FIGS. 1 and 2, the ordinates represent the quantity of the pancreatic juice secreted (μl/min./100 g body weight) and the abscissae represent time (min.). FIGS. 3 and 4 show the quantities of amylase secreted when placebo was administered and when Coenzyme Q10 was administered, respectively. In FIGS. 3 and 4, the ordinates represent quantity of amylase secreted (unit/min./100 g body weight) and the abscissae represent time (min.). In FIGS. 1-4, the values are average values ± standard deviation. The arrows in the figures indicate the times when Coenzyme Q10, placebo and pancreozymin were administered.
# [11] = test system: amylase of the pancreatic juice; assay: Quantity of amylase secreted in pancreatic juice after pancreozymin in anesthetized rats; type: in vivo, rat (male Wistar)
# Procedure: as §4, §5
# Amylase activity of the pancreatic juice was determined by Kanno's method [Journal of Physiology (London) Vol. 245, P. 599 (1975)]. One amylase unit indicates a unit of amylase activity producing 1 mg of maltose by incubation of 37° C for 5 minutes.
# as §6, §7, §8
# [12] = any administration group, 7 days
# [13] = intramuscular, Nikkol HCO-60 solution, single dose, 7 days
# [14] = intravenous, Nikkol HCO-60 solution, single dose, 7 days
# [15] = maximum dose in each administration route
# [16] = oral, gum Arabic suspension, single dose, 7 days observation
# [17] = relative to maximum doses of Table 1
# [18] = subcutaneous, Nikkol HCO-60 solution, single dose, 7 days
# [19] = 40, 200, 1000 mg/Kg/day oral, 5 weeks
# [20] = 6, 60, 600 mg/Kg/day oral, 23 days
# [21] = 6, 60, 600 mg/Kg/day oral, 26 weeks
# [22] = spontaneous pneumonia and aspiration pneumonia due to erroneous administration, dose group not stated
# [23] = 3 mg/100 g femoral vein, after pancreozymin
# [24] = 10 minutes after pancreozymin, Coenzyme Q10 3 mg/100 g i.v. (femoral vein) 60 minutes before
smiles,measurement,setting,value
COC1=C(OC)C(=O)C(C/C=C(\C)CC/C=C(\C)CC/C=C(\C)CC/C=C(\C)CC/C=C(\C)CC/C=C(\C)CC/C=C(\C)CC/C=C(\C)CC/C=C(\C)CCC=C(C)C)=C(C)C1=O [Coenzyme Q10],solubility in acetone,[1]; acetone,soluble
same,solubility in benzene,[1]; benzene,easily soluble
same,solubility in carbon tetrachloride,[1]; carbon tetrachloride,easily soluble
same,solubility in chloroform,[1]; chloroform,easily soluble
same,solubility in ethanol,[1]; ethanol,insoluble
same,solubility in ether,[1]; ether,soluble
same,solubility in methanol,[1]; methanol,hardly soluble
same,solubility in water,[1]; water,hardly soluble
same,acute toxicity (conclusion),[2],extremely low
same,"general condition, body weight, food intake, autopsy findings",[2]; [12],no change was recognized
same,"Maximum dose (no case of deaths), intramuscular",[2]; [13],500 mg/kg
same,"Maximum dose (no case of deaths), intravenous",[2]; [14],250 mg/kg
same,deaths,[2]; [15],no case of deaths
same,"Maximum dose (no case of deaths), oral",[2]; [16],4000 mg/kg
same,LD50,[2]; [17],far higher than the maximum dose mentioned above
same,"Maximum dose (no case of deaths), subcutaneous",[2]; [18],500 mg/kg
same,acute toxicity (conclusion),[3],extremely low
same,"general condition, body weight, food intake, autopsy findings",[3]; [12],no change was recognized
same,"Maximum dose (no case of deaths), intramuscular",[3]; [13],500 mg/kg
same,"Maximum dose (no case of deaths), intravenous",[3]; [14],250 mg/kg
same,deaths,[3]; [15],no case of deaths
same,"Maximum dose (no case of deaths), oral",[3]; [16],4000 mg/kg
same,LD50,[3]; [17],far higher than the maximum dose mentioned above
same,"Maximum dose (no case of deaths), subcutaneous",[3]; [18],500 mg/kg
same,general condition and body weight versus control group,[4]; [19],no difference
same,hematological test and biochemical test of blood and urine,[4]; [19],No significant change was recognized
same,weight of each organ,[4]; [19],no significant change
same,macroscopical and histological observation,"[4]; hematoxylin-eosine staining and liver fat staining, 5 weeks",abnormality was not recognized
same,toxicity (conclusion),"[4]; oral, 5 weeks",there was not recognized the toxicity seemingly due to the administration
same,dead animals during the experiment,"[4]; spontaneous pneumonia and aspiration pneumonia due to error of administration, dose group not stated",four
same,general condition and increase of body weight versus control group,[5]; [20],no difference
same,hematological test and biochemical test of blood,[5]; [20],Abnormal findings were not obtained
same,weight of each organ,[5]; [20],no effect on the weight of each organ
same,electron-microscopic observation of liver,"[5]; 7th, 14th and 24th days",there were not recognized abnormal findings on the minute structure of the liver
same,macroscopical and histological observation,[5]; hematoxylin-eosine staining and liver fat staining,abnormalities were not recognized
same,toxicity (conclusion),"[5]; oral, 23 days",there were not recognized the findings wherein the toxicity of Coenzyme Q10 will be suggested
same,body weight,[6]; [21],increased the same as that of the control group
same,general condition versus control group,[6]; [21],no difference
same,weights of organs,[6]; 26 weeks,no significant increase and decrease
same,leukocytal percentages,"[6]; hematological findings, 26 weeks","some increase and decrease, but do not provide the mutual relation depending upon the dose; the percentages being within the range of physiological fluctuations"
same,macroscopical and histological observation,"[6]; hematoxylin-eosine staining and liver fat staining, versus control group",abnormalities were not recognized
same,toxicity (conclusion),"[6]; oral, 26 weeks",no toxicity was observed
same,"deaths, females",[6]; [22],three
same,"deaths, males",[6]; [22],11 males
same,biochemical tests of blood and urine,"[6]; versus control group, 26 weeks",No significant changes were recognized
same,"adverse effects in mothers, fetuses and newborns",[7],no adverse effects were noted
same,"adverse effects in mothers, fetuses and newborns",[8],no adverse effects were noted
same,overall safety,[9],"a very safe drug, without side-effects"
same,"fourth response, quantity of pancreatic juice, P versus placebo",[10]; [23],< 0.05
same,"quantity of pancreatic juice secreted, comparison with placebo group",[10]; [23],significantly superior
same,"second response, quantity of pancreatic juice, P versus placebo",[10]; [23],< 0.02
same,"third response, quantity of pancreatic juice, P versus placebo",[10]; [23],< 0.02
same,"first response, quantity of pancreatic juice secreted, ratio to placebo group",[10]; [24],about 1.5 times
same,"second through fourth responses, quantity of amylase, P versus placebo","[11]; 3 mg/100 g femoral vein, after pancreozymin, all cases",higher than 0.05
same,"first response, quantity of amylase secreted, ratio to placebo group",[11]; [24],about 1.6 times
same,"quantity of amylase secreted, comparison with placebo group","[11]; second through fourth responses, 3 mg/100 g femoral vein, after pancreozymin",significantly superior
